According to PubChem BioAssay AID248 (DTP/NCI, 2004):
Where “and” joins values, the source holds several entries; their conditions need not be identical. Identical values can stand only once. Toxic doses and inconclusive results are not listed. Cut-off read from the data, not from the text of the source: active = T/C of 150% or more; inactive = T/C below 125%.

System: L1210 leukemia ip in BDF1 mice, survival T/C
Assay: NCI In Vivo Anticancer Drug Screen. Data for tumor model L1210 Leukemia (intraperitoneal) in B6D2F1 (BDF1) mice
Settings: endpoint: mean survival time, higher = longer survival
Procedure, shortened: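 Mice bearing the transplanted tumor received compound or vehicle. Survival of the treated group was divided by that of the vehicle-treated control group to give the ratio.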

[1] = dose: 100.0 mg/kg/injection, schedule: Q01DX009 (ip), vehicle: Klucel (hydroxypropylcellulose) (HPC)
[2] = dose: 200.0 mg/kg/injection, schedule: Q01DX009 (ip), vehicle: Klucel (hydroxypropylcellulose) (HPC)
[3] = dose: 100.0 mg/kg/injection, schedule: Q01DX001 (ip), vehicle: saline with Tween-80
[4] = dose: 100.0 mg/kg/injection, schedule: Q04DX003 (ip), vehicle: saline with Tween-80

Measured: T/C

Nn1c2ccccc2c2ccccc21
inactive: dose: 50.0 mg/kg/injection, schedule: Q01DX009 (ip), vehicle: Klucel (hydroxypropylcellulose) (HPC) 103 % of control | dose: 75.0 mg/kg/injection, schedule: Q01DX001 (ip), vehicle: carboxymethylcellulose (CMC) 101 % of control | [1] 103 % of control | dose: 150.0 mg/kg/injection, schedule: Q01DX001 (ip), vehicle: carboxymethylcellulose (CMC) 104 % of control | [2] 92 % of control | dose: 300.0 mg/kg/injection, schedule: Q01DX001 (ip), vehicle: carboxymethylcellulose (CMC) 96 % of control

CCC(CO)Nc1nc2ccc([N+](=O)[O-])cc2c2ccccc12 (configuration not stated)
inactive: [1] 103 % of control | dose: 100.0 mg/kg/injection, schedule: Q04DX003 (ip), vehicle: Klucel (hydroxypropylcellulose) (HPC) 94 % of control | [2] 111 % of control | dose: 200.0 mg/kg/injection, schedule: Q04DX003 (ip), vehicle: Klucel (hydroxypropylcellulose) (HPC) 102 % of control | dose: 400.0 mg/kg/injection, schedule: Q04DX003 (ip), vehicle: Klucel (hydroxypropylcellulose) (HPC) 102 % of control

CCCCCCCCN(C)/N=N/c1nc[nH]c1C(N)=O
inactive: [1] 113 % of control

NS(=O)(=O)c1ccc(Br)cc1
inactive: dose: 25.0 mg/kg/injection, schedule: Q04DX003 (ip), vehicle: saline 106 % of control | dose: 50.0 mg/kg/injection, schedule: Q04DX003 (ip), vehicle: saline 97 % of control | dose: 100.0 mg/kg/injection, schedule: Q04DX003 (ip), vehicle: saline 100 % of control | dose: 150.0 mg/kg/injection, schedule: Q04DX003 (ip), vehicle: saline 105 % of control | dose: 225.0 mg/kg/injection, schedule: Q04DX003 (ip), vehicle: saline 102 % of control | dose: 335.0 mg/kg/injection, schedule: Q04DX003 (ip), vehicle: saline 105 % of control

CC(C)=NOCCCCON=C(C)C
inactive: [3] 101 % of control | dose: 100.0 mg/kg/injection, schedule: Q04DX002 (ip), vehicle: saline with Tween-80 95 % of control and 103 % of control | dose: 200.0 mg/kg/injection, schedule: Q01DX001 (ip), vehicle: saline with Tween-80 100 % of control | dose: 200.0 mg/kg/injection, schedule: Q04DX002 (ip), vehicle: saline with Tween-80 109 % of control and 88 % of control | dose: 400.0 mg/kg/injection, schedule: Q01DX001 (ip), vehicle: saline with Tween-80 92 % of control | dose: 400.0 mg/kg/injection, schedule: Q04DX002 (ip), vehicle: saline with Tween-80 103 % of control and 88 % of control

CCCCCCCCCCCCCCCC(=O)Oc1ccc(/C(CC)=C(/CC)c2ccc(OC(=O)CCCCCCCCCCCCCCC)cc2)cc1
inactive: [4] 89 % of control | dose: 200.0 mg/kg/injection, schedule: Q01DX009 (ip), vehicle: saline with Tween-80 91 % of control | dose: 200.0 mg/kg/injection, schedule: Q04DX003 (ip), vehicle: saline with Tween-80 100 % of control | dose: 400.0 mg/kg/injection, schedule: Q01DX009 (ip), vehicle: saline with Tween-80 91 % of control | dose: 400.0 mg/kg/injection, schedule: Q04DX003 (ip), vehicle: saline with Tween-80 89 % of control

Cc1ccc(S(=O)(=O)N/N=C/c2ccc(O)cc2)cc1
inactive: dose: 87.5 mg/kg/injection, schedule: Q04DX003 (ip), vehicle: Klucel (hydroxypropylcellulose) (HPC) 97 % of control | dose: 175.0 mg/kg/injection, schedule: Q04DX003 (ip), vehicle: Klucel (hydroxypropylcellulose) (HPC) 105 % of control | dose: 350.0 mg/kg/injection, schedule: Q04DX003 (ip), vehicle: Klucel (hydroxypropylcellulose) (HPC) 103 % of control

Nc1cc(Cl)c2cccnc2c1O
inactive: dose: 50.0 mg/kg/injection, schedule: Q04DX003 (ip), vehicle: saline with Tween-80 88 % of control | dose: 75.0 mg/kg/injection, schedule: Q01DX001 (ip), vehicle: saline 98 % of control | [4] 100 % of control | dose: 150.0 mg/kg/injection, schedule: Q01DX001 (ip), vehicle: saline 96 % of control

Cc1ccc(NC(=S)N(CCC#N)C(C)C)cc1C
inactive: [1] 110 % of control | [2] 106 % of control | dose: 400.0 mg/kg/injection, schedule: Q01DX009 (ip), vehicle: Klucel (hydroxypropylcellulose) (HPC) 103 % of control

Oc1ccc2ccccc2c1/C=N/Nc1ccc2ccccc2n1
inactive: dose: 25.0 mg/kg/injection, schedule: Q01DX001 (ip), vehicle: saline with Tween-80 97 % of control | dose: 50.0 mg/kg/injection, schedule: Q01DX001 (ip), vehicle: saline with Tween-80 101 % of control | [3] 98 % of control
